The values below come from US9518041B2, “(+)-5-(3,4-difluorophenyl)-5-[(3-methyl-2-oxopyridin-1(2H)-yl)methyl]imidazolidine-2,4-dione and drug containing same” (KAKEN PHARMACEUTICAL CO., LTD., priority 2013, dated 2016).

As a reminder, the solubility is the dissolved amount per volume that the medium holds.

≈ marks a conversion by molar mass, not a printed value. Where two headings read alike, the source gives them in different places.

The nature of data set [1]: Solubility test in organic solvents (propylene glycol, butylene glycol). In kind it is physicochemical. The conditions noted are these: organic solvent or mixture, thermodynamic from solid, visual observation after 24 hours at room temperature. As to the method: Under room temperature conditions, in a 0.5 mL polypropylene tube, (+)-5-(3,4-difluorophenyl)-5-[(3-methyl-2-oxopyridin-1(2H)-yl)methyl]imidazolidine-2,4-dione and (±)-5-(3,4-difluorophenyl)-5-[(3-methyl-2-oxopyridin-1(2H)-yl)methyl]imidazolidine-2,4-dione measured in advance for a suitable amount were prepared, respectively. In each tube, solvent (Propylene glycol (PG) or butylene glycol (BG)) was added with various amounts, e.g. 10 times, 20 times or 100 times amount of the test compound, and stirred with a vortex mixer. With a table ultrasonic washer set at 37° C., ultrasonication treatment was given for 10 minutes; after warming for an hour in a thermostat chamber, each were kept standing for 24 hours at room temperature. The test solutions were observed by sight to evaluate the states in accordance with the determination criterion given below.
Determination criterion consisted of the following two categories:
“Soluble”: Test compound dissolved; no undissolved substances confirmed by visual observation.
“Insoluble”: Test compound remains undissolved; undissolved substances confirmed by visual observation.

A short description of data set [2]: Solubility test in the 2nd fluid for the disintegration test of the Japanese Pharmacopoeia. The class given is physicochemical. The conditions noted are these: pH 6.8, aqueous buffer, thermodynamic from solid; pH6.8, shaken for 2 hours. As to the method:
Test substances (10.0 mg) were correctly weighed, and methanol was added to adjust to 10 mL. The solution was diluted by 10 times to prepare a solution of […].
In a centrifuge tube 5.0 mg of the test substance was weighed, added with 5.0 mL of the 2nd fluid for the disintegration test of the Japanese pharmacopoeia, supersonified for 3 minutes, and shaken for 2 hours thereafter. This solution was filitered with a membrane filter (0.2 μm), 500 μL the filtrate was measured, 500 μL of acetonitrile was added, and fully stirred to obtain the sample solution.
To 250 mL of 0.2 mol/L potassium dihydrogenphosphate aqueous solution, 118 mL of 0.2 mol/L sodium hydroxide aqueous solution and water was added to adjust to 1000 mL.
Using a high performance liquid chromatography, each of the sample solution for a calibration curve and sample solution for solubility measurement is measured twice to calculate an average area for each.
Based on the average area obtained in the above mentioned method, using an equation below to calculate a solubility. Solubility in the 2nd fluid for the disintegration test of the Japanese pharmacopoeia(μg/mL)=((P×2)/S)×100
S: Average area on the sample solution for a calibration curve
P: Average area on the sample solution for solubility measurement

As for `Cc1cccn(CC2(c3ccc(F)c(F)c3)NC(=O)NC2=O)c1=O` (racemic) [(±)-5-(3,4-difluorophenyl)-5-[(3-methyl-2-oxopyridin-1(2H)-yl)methyl]imidazolidine-2,4-dione], the solubility at 24 h in data set [1] (BG, 20 times amount of the test compound, read-out: Solubility in butylene glycol (BG), 20 times amount) is < 50000 µg/mL; in data set [1] (BG, 100 times amount of the test compound, read-out: Solubility in butylene glycol (BG), 100 times amount), > 10000 µg/mL; in data set [1] (PG, 10 times amount of the test compound, read-out: Solubility in propylene glycol (PG), 10 times amount), < 50000 µg/mL; in data set [1] (PG, 20 times amount of the test compound, read-out: Solubility in propylene glycol (PG), 20 times amount) it was < 50000 µg/mL; in data set [1] (PG, 100 times amount of the test compound, read-out: Solubility in propylene glycol (PG), 100 times amount), > 10000 µg/mL. The same molecule registered a solubility at 2 h in data set [2] of 45 µg/mL (≈ 0.135 mM).
